Test results: ChEMBL document CHEMBL6153125, “Harnessing the Magic Methyl Effect: Discovery of CLPP-2068 as a Novel HsClpP Activator for the Treatment of Diffuse Large B-Cell Lymphoma” (J Med Chem, 2025)
Non-standard residues stand in square brackets, D forms with d. Residues, ends and D or L forms follow the SMILES beside them. αMeP = C[C@@]1(C(=O)O)CCCN1

How the values were obtained:
[1] = system: OCI-Ly10; assay: Antiproliferative activity against human OCI-Ly10 cells assessed as cell viability measured after 72 hrs incubation by CellTiter-based growth inhibition assay; conditions: OCI-Ly10, 72 h
[2] = molecular target: ATP-dependent Clp protease proteolytic subunit, mitochondrial (Homo sapiens, UniProt Q16740); assay: Activation of human ClpP extracted from Escherichia coli using Ac-WLA-AMC as substrate assessed as fluorescence signal measured after 10 mins incubation
[3] = molecular target: T1, 3-hydroxy-3-methylglutaryl-coenzyme A reductase (Rattus norvegicus, UniProt P51639)
T1 sequence (P51639 whole entry): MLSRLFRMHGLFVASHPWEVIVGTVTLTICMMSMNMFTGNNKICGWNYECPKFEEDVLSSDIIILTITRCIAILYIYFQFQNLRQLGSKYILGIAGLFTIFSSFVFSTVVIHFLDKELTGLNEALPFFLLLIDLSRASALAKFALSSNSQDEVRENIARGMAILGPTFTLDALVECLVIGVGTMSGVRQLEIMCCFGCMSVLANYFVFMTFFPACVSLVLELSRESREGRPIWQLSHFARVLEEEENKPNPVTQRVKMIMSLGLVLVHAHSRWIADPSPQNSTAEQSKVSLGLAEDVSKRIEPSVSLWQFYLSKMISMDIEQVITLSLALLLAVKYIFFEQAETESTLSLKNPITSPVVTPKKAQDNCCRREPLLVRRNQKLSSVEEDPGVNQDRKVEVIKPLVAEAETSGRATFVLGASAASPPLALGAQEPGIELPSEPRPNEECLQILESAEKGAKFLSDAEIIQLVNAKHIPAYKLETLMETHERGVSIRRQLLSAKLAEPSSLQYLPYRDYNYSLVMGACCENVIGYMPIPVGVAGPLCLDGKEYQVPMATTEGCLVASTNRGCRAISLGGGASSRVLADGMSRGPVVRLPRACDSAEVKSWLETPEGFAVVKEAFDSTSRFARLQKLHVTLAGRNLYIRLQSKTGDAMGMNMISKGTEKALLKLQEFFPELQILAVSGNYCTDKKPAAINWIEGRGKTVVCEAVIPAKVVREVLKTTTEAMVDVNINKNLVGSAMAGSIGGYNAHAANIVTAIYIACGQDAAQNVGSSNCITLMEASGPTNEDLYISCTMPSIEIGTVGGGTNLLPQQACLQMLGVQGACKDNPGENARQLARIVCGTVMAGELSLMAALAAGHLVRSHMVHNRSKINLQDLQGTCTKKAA
Description: Inhibition of HMG-CoA reductase activity in rat liver microsomes

[4] = in vivo; conditions: rat, blood, iv, 10 mg/kg
Description: Elimination half life in rat blood at 10 mg/kg, iv measured after 12 hrs

ATP-dependent Clp protease proteolytic subunit, mitochondrial, sequence (Q16740 whole entry): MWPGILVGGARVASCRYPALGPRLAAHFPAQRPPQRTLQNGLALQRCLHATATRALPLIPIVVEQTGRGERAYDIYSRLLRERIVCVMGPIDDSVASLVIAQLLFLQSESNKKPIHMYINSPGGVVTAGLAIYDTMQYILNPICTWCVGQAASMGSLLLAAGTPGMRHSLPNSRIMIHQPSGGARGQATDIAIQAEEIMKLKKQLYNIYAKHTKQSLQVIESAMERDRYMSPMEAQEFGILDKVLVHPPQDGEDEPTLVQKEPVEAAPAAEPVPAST

| SMILES | IC50 [1] | EC50 [2] | IC50 [3] | half-life at 12 h [4] |
| --- | --- | --- | --- | --- |
| C[C@@H]1Cc2nc(NCC3CC3)[nH]c(=O)c2CN1Cc1cccc(C#N)c1 | 4030 nM | 1430 nM |  |  |
| COc1cccc(CN2Cc3c(nc(NCc4ccc(C(F)(F)F)cc4)[nH]c3=O)C[C@H]2C)c1 | 9010 nM | 1000 nM |  |  |
| C[C@@H]1Cc2nc(NCc3ccc(C(F)(F)F)cc3)[nH]c(=O)c2CN1Cc1cccc(OC(F)(F)F)c1 | 1290 nM | 270 nM |  |  |
| C[C@@H]1Cc2nc(NCc3ccc(C(F)(F)F)cc3)[nH]c(=O)c2CN1Cc1cccc(Br)c1 | 50.5 nM | 62.8 nM |  |  |
| C[C@@H]1Cc2nc(NCc3ccc(C(F)(F)F)cc3)[nH]c(=O)c2CN1Cc1cccc(C#N)c1 | 41.6 nM | 56.1 nM |  |  |
| Cc1cccc(CNc2nc3c(c(=O)[nH]2)CN(Cc2cccc(C#N)c2)[C@H](C)C3)c1 | 148 nM | 113 nM |  |  |
| C[C@@H]1Cc2nc(NCc3ccc(C(F)(F)F)cc3)[nH]c(=O)c2CN1CC1CCCCC1 | 789 nM | 302 nM |  |  |
| C[C@@H]1Cc2nc(NCc3ccc(C(F)(F)F)cc3)[nH]c(=O)c2CN1Cc1ccncc1 | 6400 nM | 3960 nM |  |  |
| Cc1cc(Br)ccc1CNc1nc2c(c(=O)[nH]1)CN(Cc1cccc(C#N)c1)[C@H](C)C2 | 86.9 nM | 93 nM |  |  |
| CC[C@H](C)C(=O)O[C@H]1CCC=C2C=C[C@H](C)[C@H](CC[C@@H]3C[C@@H](O)CC(=O)O3)[C@H]21 [MEVASTATIN] |  |  | 5.6 nM |  |
| Cc1ccccc1CNc1nc2c(c(=O)[nH]1)CN(Cc1cccc(C#N)c1)[C@H](C)C2 | 45 nM | 43.4 nM |  |  |
| C[C@@H]1Cc2nc(NCc3ccc(Br)c(F)c3)[nH]c(=O)c2CN1Cc1cccc(C#N)c1 | 47.5 nM | 265 nM |  |  |
| C[C@@]1(C(=O)N[C@@H](CCC(=O)O)C(=O)O)CCCN1C(=O)CN [TROFINETIDE] (H-Gly-[αMeP]-Glu-OH) |  |  |  | 1.23 h |
| C[C@@H]1Cc2nc(NCc3ccc(C(F)(F)F)cc3)[nH]c(=O)c2CN1Cc1cccc(Cl)c1 | 110 nM | 151 nM |  |  |
| C[C@@H]1Cc2nc(NCc3ccc(Cl)cc3)[nH]c(=O)c2CN1Cc1cccc(C#N)c1 | 13.5 nM | 59.2 nM |  |  |
| C[C@@H]1Cc2nc(NCc3ccc(C(F)(F)F)cc3)[nH]c(=O)c2CN1Cc1cccnc1 | 7840 nM | 3380 nM |  |  |
| C[C@@H]1Cc2nc(NCc3ccc(C(F)(F)F)cc3)[nH]c(=O)c2CN1Cc1ccc(F)cc1 | 1080 nM | 490 nM |  |  |
